Assay results reported in the supplement of paper PMC10307832.

compound: CC1=C(C(=NN1)C)CC2=C(C3=C(S2)N(C(=O)N(C3=O)C)CC(C)C)C(=O)N4C[C@@H](CO4)O + O=C(CCCCCCC(=O)Nc1ccccc1)NO [Vorinostat] (partner 1 µM); experiment: relative viability (nuclei count vs DMSO), 5 days (fraction); higher = more cells survive; details: first compound 0.0025 µM
Method in brief: (§1)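 Cells from lung cancer lines were seeded into 1536-well plates and, one day later, dosed by pin tool. Treatments were either a single drug or a fixed dose of an anchor drug with five library-drug doses (not always all listed) in √10 steps. After 5 days, nuclei were stained in a one-step fixation (final 0.05% Triton X-100, 1% formaldehyde, 1 ug/ml Hoechst) and counted on 4× images, and relative viability is the treated-to-vehicle nuclei ratio, as the median of duplicate plates.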

Compared with LC-2-ad, NCI-H1944 is lower in relative viability: 0.696 for the first, 0.6 for the second.

Compared with NCI-H1975, RERF-LC-KJ is lower in relative viability: 0.754 for the first, 0.738 for the second.

First: ABC-1
Second: NCI-H358
The relative viability of the first is higher: 1.08 for the first, 0.704 for the second.

Compared with NCI-H650, PC-3 [JPC-3] is higher in relative viability: 0.549 for the first, 0.853 for the second.

same assay, conditions: first compound 0.007906 µM

Going from LC-2-ad to NCI-H1944, the relative viability rises from 0.658 to 0.704.

Compared with NCI-H1975, RERF-LC-KJ is higher in relative viability: 0.743 for the first, 0.814 for the second.

Compared with ABC-1, NCI-H358 is lower in relative viability: 1.27 for the first, 0.575 for the second.

Compared with NCI-H650, PC-3 [JPC-3] is higher in relative viability: 0.516 for the first, 0.898 for the second.

same assay, conditions: first compound 0.025 µM

Going from LC-2-ad to NCI-H1944, the relative viability falls from 0.718 to 0.576.

Going from NCI-H1975 to RERF-LC-KJ, the relative viability falls from 0.729 to 0.66.

First: NCI-H358
Second: NCI-H650
The relative viability of the first is higher: 0.677 for the first, 0.393 for the second.

PC-3 [JPC-3] was tested, and the relative viability was 0.741.

same assay, conditions: first compound 0.07906 µM

First: LC-2-ad
Second: NCI-H1944
The relative viability of the first is higher: 0.705 for the first, 0.522 for the second.

Compared with NCI-H1975, RERF-LC-KJ is lower in relative viability: 0.747 for the first, 0.696 for the second.

Going from ABC-1 to NCI-H358, the relative viability falls from 0.904 to 0.803.

First: NCI-H650
Second: PC-3 [JPC-3]
The relative viability of the first is lower: 0.35 for the first, 0.972 for the second.

same assay, conditions: first compound 0.25 µM

Going from LC-2-ad to NCI-H1944, the relative viability falls from 0.729 to 0.594.

Going from NCI-H1975 to RERF-LC-KJ, the relative viability falls from 0.786 to 0.767.

Compared with ABC-1, NCI-H358 is lower in relative viability: 0.864 for the first, 0.836 for the second.

Compared with NCI-H650, PC-3 [JPC-3] is higher in relative viability: 0.545 for the first, 0.797 for the second.

compound: CC1=C(C(=NN1)C)CC2=C(C3=C(S2)N(C(=O)N(C3=O)C)CC(C)C)C(=O)N4C[C@@H](CO4)O + Cc1nc(Nc2ncc(C(=O)Nc3c(C)cccc3Cl)s2)cc(N2CCN(CCO)CC2)n1 [Dasatinib] (partner 0.075 µM); experiment: as above; details: first compound 0.0025 µM
Method in brief: as §1

Going from LC-2-ad to NCI-H1944, the relative viability falls from 0.726 to 0.238.

First: NCI-H1975
Second: RERF-LC-KJ
The relative viability of the first is lower: 0.41 for the first, 0.874 for the second.

First: NCI-H358
Second: NCI-H650
The relative viability of the first is lower: 0.18 for the first, 0.493 for the second.

Cell Line PC-3 [JPC-3] has a relative viability of 1.06.

same assay, conditions: first compound 0.007906 µM

Going from LC-2-ad to NCI-H1944, the relative viability falls from 0.474 to 0.253.

Compared with NCI-H1975, RERF-LC-KJ is higher in relative viability: 0.36 for the first, 0.946 for the second.

First: ABC-1
Second: NCI-H358
The relative viability of the first is higher: 0.346 for the first, 0.198 for the second.

Going from NCI-H650 to PC-3 [JPC-3], the relative viability rises from 0.548 to 0.939.

same assay, conditions: first compound 0.025 µM

First: LC-2-ad
Second: NCI-H1944
The relative viability of the first is higher: 0.626 for the first, 0.235 for the second.

Going from NCI-H1975 to RERF-LC-KJ, the relative viability rises from 0.394 to 0.751.

Going from NCI-H358 to NCI-H650, the relative viability rises from 0.166 to 0.365.

PC-3 [JPC-3] showed a relative viability of 0.94.

same assay, conditions: first compound 0.07906 µM

Going from LC-2-ad to NCI-H1944, the relative viability falls from 0.545 to 0.234.

First: NCI-H1975
Second: RERF-LC-KJ
The relative viability of the first is lower: 0.343 for the first, 0.855 for the second.

Going from ABC-1 to NCI-H358, the relative viability falls from 0.453 to 0.162.

Going from NCI-H650 to PC-3 [JPC-3], the relative viability rises from 0.514 to 0.908.

same assay, conditions: first compound 0.25 µM

Going from LC-2-ad to NCI-H1944, the relative viability falls from 0.588 to 0.221.

Compared with NCI-H1975, RERF-LC-KJ is higher in relative viability: 0.39 for the first, 0.804 for the second.

First: ABC-1
Second: NCI-H358
The relative viability of the first is higher: 0.517 for the first, 0.15 for the second.

For NCI-H650, the relative viability was 0.443.
